Results published in patent US12691070B2, “Cationic lipids and preparation method thereof” (RiboX Therapeutics HK Limited, priority 2023, dated 2026).

What was measured:
Hep G2 cells [1] = assay: In vitro toxicity (CellTiter-Glo cell viability), Hep G2; assay type: cell-based;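 note: percent of untreated cells luminescence signal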
Method in brief: (§1)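 Luminescent ATP read-out (CellTiter-Glo) gives the viability value, taken 72 h after cells were exposed to RNA-loaded lipid nanoparticles at 1 μg/mL.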

Hep G2 cells [2] = assay: In vitro expression of firefly-luciferase, Hep G2; assay type: cell-based
Method in brief: (§2)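 Transfection used 100 ng/mL luciferase-encoding RNA-LNPs; activity in lysates was determined at 72 h.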

RAW 264.7 cells [3] = assay: In vitro toxicity (CellTiter-Glo cell viability), RAW 264.7; assay type: cell-based;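 note: percent of untreated cells luminescence signal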
Method in brief: as §1

RAW 264.7 cells [4] = assay: In vitro expression of firefly-luciferase, RAW 264.7; assay type: cell-based
Method in brief: as §2

[5] = RNA encapsulation efficacy by Quant-IT Ribogreen kit; assay type: physicochemical; conditions: for Encapsulation Efficiency %: LNP with cirRNA (SEQ ID NO: 1)
Method in brief: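 Encapsulation efficacy came from Ribogreen fluorescence of LNPs compared with Triton X-100-lysed LNPs. The particles carried luciferase-encoding circular or linear RNA at an ionizable lipid:ribonucleotide ratio of 15 or 6.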

[6] = LNP size and polydispersity index (PDI) by dynamic light scattering; assay type: physicochemical; conditions: for Size: in nm (unit assumed)
Method in brief: (§3)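 Dynamic light scattering and zeta potential measurements were run on PBS-dialyzed LNPs, which had been formed by microfluidic mixing at 12 ml/min with final lipid at 1.5 mM to 6 mM. RNA content and percent encapsulation were determined by Ribogreen with and without Triton X-100.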

[7] = LNP zeta potential (Zetasizer); assay type: physicochemical
Method in brief: as §3

BALB/C mice = assay: In vivo expression, whole-body luminescence (IVIS)
Description: 6-8 week old, female BALB/C mice were injected with 0.05 mg*kg-1 of RNA-LNPs encoding for firefly-luciferase by intravenous injection. At 6 hours post injection, animals were intraperitoneally injected with 15 mg/ml of Luciferin substrate and whole-body luminescence was determined by a bioluminescent in vivo imaging system (IVIS).

[8] = cirRNA (SEQ ID NO: 1) LNPs, Hep G2 cells
[9] = cirRNA (SEQ ID NO: 1) LNPs, firefly-luciferase luminescence, Hep G2 cells
[10] = cirRNA (SEQ ID NO: 1) LNPs, RAW 264.7 cells
[11] = cirRNA (SEQ ID NO: 1) LNPs, firefly-luciferase luminescence, RAW 264.7 cells
[12] = cirRNA (SEQ ID NO: 1) LNPs, BALB/C mice
[13] = mRNA (SEQ ID NO: 2) LNP, 1 μg/mL, 72 hours post transfection
[14] = mRNA (SEQ ID NO: 2) LNP, 100 ng/mL, 72 hours post transfection, luciferase activity

| SMILES | In vitro Viability HepG2 (Hep G2 cells [1]; [8]) [%] | In vitro Expression HepG2 (Hep G2 cells [2]; [9]) | In vitro Viability RAW (RAW 264.7 cells [3]; [10]) [%] | In vitro Expression RAW (RAW 264.7 cells [4]; [11]) | Encapsulation Efficiency % [5] [%] | PDI ([6]; LNP with cirRNA (SEQ ID NO: 1)) | Size ([6]; LNP with cirRNA (SEQ ID NO: 1)) | Zeta (mV) ([7]; LNP with cirRNA (SEQ ID NO: 1)) | In vivo Expression (Whole Body) (BALB/C mice; [12]) | In vitro Viability HepG2 (Hep G2 cells [1]; [13]) [%] | In vitro Expression HepG2 (Hep G2 cells [2]; [14]) | In vitro Viability RAW (RAW 264.7 cells [3]; [13]) [%] | In vitro Expression RAW (RAW 264.7 cells [4]; [14]) | Encapsulation Efficiency ([5]; LNP with mRNA (SEQ ID NO: 2)) [%] | PDI ([6]; LNP with mRNA (SEQ ID NO: 2)) | Size ([6]; LNP with mRNA (SEQ ID NO: 2)) | Zeta (mV) ([7]; LNP with mRNA (SEQ ID NO: 2)) | In vivo Expression (Whole Body) (BALB/C mice; mRNA (SEQ ID NO: 2) LNP, 0.05 mg*kg-1 intravenous, 6 hours post injection) |
| --- | --- | --- | --- | --- | --- | --- | --- | --- | --- | --- | --- | --- | --- | --- | --- | --- | --- | --- |
| CCCCC/C=C\CCOC(=O)CCCCCN(CCCCCCCCOC(=O)C(CCCCCC)CCCCCCCC)CCOC(=O)NCCN1CCN(C)CC1 (centres unmarked) [Lipid 187] | 93 | 3.27E+05 | 0 | 7.47E+04 | 92 | 0.277 | 65.71 | 8.983 | 2.29E+06 | – | – | – | – | – | – | – | – | – |
| CCCCC/C=C\C/C=C\CCCCCCCCN(CCCCCCCC(=O)OC(CCCCCCCC)CCCCCCCC)CCOC(=O)NCCCn1ccnc1 [Lipid 133, heptadecan-9-yl 8-((2-(((3-(1H-imidazol-1-yl)propyl)carbamoyl)oxy)ethyl)((9Z,12Z)-octadeca-9,12-dien-1-yl)amino)octanoate] | 13 | 4.26E+04 | 27 | 8.30E+04 | 95 | 0.0973 | 92.91 | 2.957 | 2.04E+08 | – | – | – | – | – | – | – | – | – |
| CCCCC/C=C\C/C=C\CCCCCCCCN(CCCCCCCC(=O)OC(CCCCCCCC)CCCCCCCC)CCOC(=O)NCCCN(C)C [Lipid 130, heptadecan-9-yl 2-methyl-11-((9Z,12Z)-octadeca-9,12-dien-1-yl)-7-oxo-8-oxa-2,6,11-triazanonadecan-19-oate] | 91 | 5.31E+06 | 90 | 6.92E+05 | 99 | 0.1685 | 145.8 | 11.37 | 1.08E+07 | – | – | – | – | – | – | – | – | – |
| CCCCC/C=C\C/C=C\CCCCCCCCN(CCCCCCCC/C=C\CCCCCCCC)CCOC(=O)NCCN1CCN(C)CC1 [Lipid 70, 2-(((Z)-octadec-9-en-1-yl)((9Z,12Z)-octadeca-9,12-dien-1-yl)amino)ethyl (2-(4-methylpiperazin-1-yl)ethyl)carbamate] | 120 | 9.79E+04 | 104 | 2.29E+03 | 97 | 0.115 | 83.09 | 11.22 | 2.08E+05 | – | – | – | – | – | – | – | – | – |
| CCCCCCCCCC(=O)OCCCCCCCN(CCCCCCCCOC(=O)C(CCCCCC)CCCCCCCC)CCCOC(=O)NCCN(C)C (centres unmarked) [Lipid 359] | 122 | 9.26E+04 | 8 | 2.38E+03 | 89 | 0.337 | 113.9 | 6.547 | 1.85E+06 | – | – | – | – | – | – | – | – | – |
| CCCCC/C=C\CCOC(=O)CCCCCN(CCCCCC(=O)OCC(CCCCCCCC)CCCCCCCCCC)CCOC(=O)NCCN1CCCC1 (centres unmarked) [Lipid 244] | 94 | 3.62E+06 | 90 | 9.56E+02 | 96 | 0.3577 | 87.4 | −0.164 | 3.95E+07 | – | – | – | – | – | – | – | – | – |
| CCCCCCCCCCCOC(=O)CCCCCN(CCCCCCCCOC(=O)C(CCCCCC)CCCCCCCC)CCOC(=O)NCCN1CCOCC1 (centres unmarked) [Lipid 223] | 92 | 6.42E+04 | 76 | 4.76E+04 | 92 | 0.08837 | 60.01 | −2.046 | 5.53E+06 | – | – | – | – | – | – | – | – | – |
| CCCCCCCCCCC(CCCCCCCC)COC(=O)CCCCCN(CCCCCC(=O)OCC(CCCCCCCC)CCCCCCCCCC)CCOC(=O)NCCCn1ccnc1 (centres unmarked) [Lipid 167] | 102 | 8.85E+04 | 90 | 2.79E+04 | 82 | 0.0668 | 61.26 | −3.412 | 9.22E+06 | – | – | – | – | – | – | – | – | – |
| CCCCCCCCCCCOC(=O)CCCCCN(CCCCCCCCOC(=O)C(CCCCCC)CCCCCCCC)CCOC(=O)NCCN1CCN(C)CC1 (centres unmarked) [Lipid 222] | 42 | 1.63E+06 | 87 | 8.85E+04 | 97 | 0.4109 | 98.73 | 26.75 | 1.59E+06 | – | – | – | – | – | – | – | – | – |
| CCCCC/C=C\C/C=C\CCCCCCCCN(CCCCCCCC/C=C\CCCCCCCC)CCOC(=O)NCCN(C)C [Lipid 67, 2-(((Z)-octadec-9-en-1-yl)((9Z,12Z)-octadeca-9,12-dien-1-yl)amino)ethyl (2-(dimethylamino)ethyl)carbamate] | 120 | 1.21E+05 | 107 | 5.99E+02 | 99 | 0.087 | 142.9 | 8.392 | 6.00E+07 | – | – | – | – | – | – | – | – | – |
| CCCCCCCCCCC(CCCCCCCC)COC(=O)CCCCCN(CCCCCC(=O)OCC(CCCCCCCC)CCCCCCCCCC)CCOC(=O)NCCCN(C)C (centres unmarked) [Lipid 166] | 22 | 2.17E+07 | 12 | 1.48E+06 | 78 | 0.2013 | 71.24 | 4.157 | 6.43E+05 | – | – | – | – | – | – | – | – | – |
| CCCCC/C=C\C/C=C\CCCCCCCCN(CCCCCCCC/C=C\C/C=C\CCCCC)CCOC(=O)[C@@H](N)Cc1c[nH]cn1 [Lipid B, reference compound] | – | 8.71E+05 | – | – | 88 | 0.2623 | 93.61 | 3.811 | – | 97 | 4.21E+05 | 92 | 1.32E+05 | 86.87 | 0.2472 | 80.28 | 0.02157 | 3.42E+08 |
| CCCCCCCCCCCOC(=O)CCCCCN(CCCCCC(=O)OCCCCCCCCCCC)CCOC(=O)NCCN1CCCCC1 [Lipid 150, diundecyl 6,6′-((2-(((2-(piperidin-1-yl)ethyl)carbamoyl)oxy)ethyl)azanediyl)dihexanoate] | 114 | 1.44E+04 | 104 | 6.81E+02 | 79 | 0.05565 | 91.37 | 17.84 | 7.27E+05 | – | – | – | – | – | – | – | – | – |
| CCCCCCCC/C=C\CCCCCCCCN(CCCCCCCCOC(=O)C(CCCCCC)CCCCCCCC)CCOC(=O)NCCCN(CC)CC (centres unmarked) [Lipid 213] | 74 | 6.40E+06 | 90 | 2.06E+04 | 94 | 0.2952 | 114.2 | 13.22 | 2.11E+06 | – | – | – | – | – | – | – | – | – |
| CCCCCCCCCCCOC(=O)CCCCCN(CCCCCC(=O)OCCCCCCCCCCC)CCOC(=O)NCCN1CCCC1 [Lipid 151, diundecyl 6,6′-((2-(((2-(pyrrolidin-1-yl)ethyl)carbamoyl)oxy)ethyl)azanediyl)dihexanoate] | 110 | 8.79E+03 | 99 | 3.27E+01 | 89 | 0.1693 | 98.37 | 20.18 | 1.18E+05 | – | – | – | – | – | – | – | – | – |
| CCCCCCCCCC(=O)OCCCCCCCCN(CCCCCCCCOC(=O)CCCCCCCCC)CCOC(=O)NCCN1CCCC1 [Lipid 209] | 96 | 3.81E+04 | 95 | 1.08E+02 | 93 | 0.1886 | 86.68 | 13.53 | 6.62E+05 | – | – | – | – | – | – | – | – | – |
